# Earlier results, collected in US20030108586A1, “Method of long-term reversible contraception for animals” (priority 2001, published 2003).
# Like-named read-outs stand apart in the source and are kept apart here.
SMILES,adverse effects (bitches),adverse effects (synthetic progestins)
"C[C@@H]1CC2=CC(=O)CC[C@@H]2[C@H]2CC[C@@]3(C)[C@@H](CC[C@]3(C)O)[C@@H]21 [Mibolerone™, Mibolerone]",clitoral hypertrophy,
"CC(=O)O[C@]1(C(C)=O)CC[C@H]2[C@@H]3C=C(C)C4=CC(=O)CC[C@]4(C)[C@H]3CC[C@@]21C [Ovabant™, megestrol acetate]",,development of mammary tumors as well as endometrial hyperplasia
